Test results published in US20220259235A1, “EGFR Inhibitor, Composition, and Preparation Method Therefor” (BETTA PHARMACEUTICALS CO., LTD, priority 2019, published 2022).

Experiments:
[1] = target: T1, hERG protein (Homo sapiens, UniProt Q12809); assay: hERG IC50 test (tracer/membranes fluorescence polarization); type: binding; settings: hERG membranes and tracer, read-out: IC50 results of hERG protein to compound
T1 construct: purchased
Protocol: 1. Thaw hERG kits (Tracer, E-4031 and Membranes) at room temperature;
2. Add 10 μL of positive compound E-4031 and 10 μL of test compound (10 mM) to 384 well plate (Corning, Art. No. 3658);
3. E-4031 is sequentially 5-fold diluted by pure water (10 concentration points in total), and the test compound is sequentially 5-fold diluted by DMSO (10 concentration points in total).
4. Take 1 μL of all gradient concentrations and add them in parallel to the wells containing 24 μL Assay buffer, and dilute 25 times (take 3 μL of the maximum concentration of E-4031 and add it to 72 μL Assay buffer).
5. Add 10 μL Membranes to another black 384-well plate (Coming, Art.4511).
6. Take 5 μL of 25-fold diluted working solution of positive and test compounds, and add it to above-mentioned plate with 10 μL Membranes, 2 copies at each concentration.
7. Negative control: Add 5 μL Assay buffer to the well with 10 μL Membranes, 8 copies in parallel;
8. Positive control: Add 5 μL E-4031 (120 μM) to the well with 10 μL Membranes, 8 copies in parallel;
9. […]
10. Before measuring the fluorescence polarization, cover the analysis plate to protect the reagents from light and evaporation, and incubate at room temperature (20-25° C.) for 2 hours.
11. Read fluorescence polarization in PerkinElmer EnVision® Multilabel after incubation; […]

[2] = Liver microsomal clearance test, human; type: in vitro ADME; settings: Human liver microsomes, 0.5 mg/mL, NADPH
Protocol: (§1) Test 3 Liver Microsomal Clearance Test
(§2) 1. Prepare 0.5 mg/mL liver microsome diluent containing K-butter and MgCl2:
(§3) 2.1 Take 356 μL of the liver microsome diluent prepared above and add it to the preset wells of the incubation plate, the number of multiple wells n=1, mark it as the incubation plate.
(§4) 2.2 Take 4 μL of the positive control compound Verapamil (50 μM) and the working solution of the test compound (200 μM) into the above incubation plate containing 356 μL of liver microsome diluent, and mix well (The dilution solvent from the stock solution to the working solution is a mixed solvent of acetonitrile: methanol: water=1:1:2, and the final concentration of DMSO is ≤0.5%),
(§5) 2.3 Place the incubation plate in a 37° C. thermostatic oscillator (at shaking speed of 100 rpm) for pre-incubation with 10 min.
(§6) 2.4 Add 40 μL of 10 mM NADPH (add 40 μL of K-buffer to the wells without NADPH) to each reaction well to start the reaction and start timing.
(§7) 3. Sample collection and treatment:
(§8) 3.1 After adding NADPH to start the reaction, immediately take out 50 μL of the sample and add it to the precipitation plate pre-added with 400 μL of stop solution, and shake on an oscillator at 600 rpm for 5 min at room temperature as a 0 min sample.
(§9) 3.2 At the predetermined time points of 5 min, 15 min and 45 min, take out 50 μL of sample from the incubation plate and add it to the precipitation plate. The subsequent steps were the same as the treatment of 0 min sample. 3.3 After balancing, centrifuge above precipitation plate at 3200 rpm for 10 min at 4° C.
(§10) 3.4 Take 50 μL of the supernatant after centrifugation and add it to pre-added 20% acetonitrile water at appropriate proportion, shake on an oscillator at 600 rpm for 2 min at room temperature, mix well, and put it into the LC-MS/MS sampler for sample injection.
(§11) Analysis of Experimental Data
1. […]

[3] = Liver microsomal clearance test, monkey; type: in vitro ADME; settings: Monkey liver microsomes, 0.5 mg/mL, NADPH
Protocol: as §1, §2, §3, §4, §5, §6, §7, §8, §9, §10, §11
1. […]

[4] = Liver microsomal clearance test, mice; type: in vitro ADME; settings: Mice liver microsomes, 0.5 mg/mL, NADPH
Protocol: as §1, §2, §3, §4, §5, §6, §7, §8, §9, §10, §11
1. […]

[5] = target: Ba/F3-Δ19del/T790M/C797S (Homo sapiens, UniProt P00533, T790M/C797S, cells depend on it, form not given); assay: Ba/F3-Δ19del/T790M/C797S cell proliferation assay (CellTiter Glo, 72 h); type: cell-based; settings: CTG, numeric values, read-out: BaF3 Δ19del/T790M/C797S IC50
Ba/F3-Δ19del/T790M/C797S, sequence (P00533 with tags, fused parts or gaps DEL746-750/T790M/C797S, form open): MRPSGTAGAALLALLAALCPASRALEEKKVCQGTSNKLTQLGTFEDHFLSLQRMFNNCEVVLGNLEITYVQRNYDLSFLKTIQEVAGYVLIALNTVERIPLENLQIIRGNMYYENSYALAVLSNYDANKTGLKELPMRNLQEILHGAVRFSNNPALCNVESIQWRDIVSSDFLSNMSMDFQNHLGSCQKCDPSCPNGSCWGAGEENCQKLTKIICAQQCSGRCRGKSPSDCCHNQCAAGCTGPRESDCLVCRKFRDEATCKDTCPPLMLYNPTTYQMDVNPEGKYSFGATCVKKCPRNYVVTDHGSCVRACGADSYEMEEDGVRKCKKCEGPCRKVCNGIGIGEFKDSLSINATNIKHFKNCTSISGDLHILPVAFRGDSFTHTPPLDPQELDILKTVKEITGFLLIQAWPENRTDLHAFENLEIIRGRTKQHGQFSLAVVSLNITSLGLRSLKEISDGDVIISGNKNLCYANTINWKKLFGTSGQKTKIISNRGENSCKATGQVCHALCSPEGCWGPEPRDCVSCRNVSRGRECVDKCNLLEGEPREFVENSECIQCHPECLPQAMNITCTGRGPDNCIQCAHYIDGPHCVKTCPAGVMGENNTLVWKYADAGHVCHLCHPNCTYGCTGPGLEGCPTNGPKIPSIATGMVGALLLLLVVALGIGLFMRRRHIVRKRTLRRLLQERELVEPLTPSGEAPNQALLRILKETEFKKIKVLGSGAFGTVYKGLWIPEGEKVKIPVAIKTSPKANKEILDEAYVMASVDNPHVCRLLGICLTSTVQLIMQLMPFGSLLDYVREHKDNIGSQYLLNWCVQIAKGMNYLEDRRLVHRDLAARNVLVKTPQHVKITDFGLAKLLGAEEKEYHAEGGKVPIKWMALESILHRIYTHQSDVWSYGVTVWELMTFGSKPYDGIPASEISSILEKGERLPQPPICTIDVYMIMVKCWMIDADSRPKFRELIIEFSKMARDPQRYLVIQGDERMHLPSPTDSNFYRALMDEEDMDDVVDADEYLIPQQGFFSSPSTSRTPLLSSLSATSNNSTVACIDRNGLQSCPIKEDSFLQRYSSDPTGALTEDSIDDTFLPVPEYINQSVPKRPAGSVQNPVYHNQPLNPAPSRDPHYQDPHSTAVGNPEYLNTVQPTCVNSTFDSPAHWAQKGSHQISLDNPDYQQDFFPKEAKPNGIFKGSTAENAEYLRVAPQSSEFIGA
Summary of the method: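 Cells seeded at 2000/well and exposed 72 h to compound at 1000 to 0.2 nM (0.1% DMSO). Viability read by CellTiter-Glo luminescence; IC50 from four-parameter nonlinear regression of signal vs. log concentration.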

T1 sequence (Q12809 whole entry): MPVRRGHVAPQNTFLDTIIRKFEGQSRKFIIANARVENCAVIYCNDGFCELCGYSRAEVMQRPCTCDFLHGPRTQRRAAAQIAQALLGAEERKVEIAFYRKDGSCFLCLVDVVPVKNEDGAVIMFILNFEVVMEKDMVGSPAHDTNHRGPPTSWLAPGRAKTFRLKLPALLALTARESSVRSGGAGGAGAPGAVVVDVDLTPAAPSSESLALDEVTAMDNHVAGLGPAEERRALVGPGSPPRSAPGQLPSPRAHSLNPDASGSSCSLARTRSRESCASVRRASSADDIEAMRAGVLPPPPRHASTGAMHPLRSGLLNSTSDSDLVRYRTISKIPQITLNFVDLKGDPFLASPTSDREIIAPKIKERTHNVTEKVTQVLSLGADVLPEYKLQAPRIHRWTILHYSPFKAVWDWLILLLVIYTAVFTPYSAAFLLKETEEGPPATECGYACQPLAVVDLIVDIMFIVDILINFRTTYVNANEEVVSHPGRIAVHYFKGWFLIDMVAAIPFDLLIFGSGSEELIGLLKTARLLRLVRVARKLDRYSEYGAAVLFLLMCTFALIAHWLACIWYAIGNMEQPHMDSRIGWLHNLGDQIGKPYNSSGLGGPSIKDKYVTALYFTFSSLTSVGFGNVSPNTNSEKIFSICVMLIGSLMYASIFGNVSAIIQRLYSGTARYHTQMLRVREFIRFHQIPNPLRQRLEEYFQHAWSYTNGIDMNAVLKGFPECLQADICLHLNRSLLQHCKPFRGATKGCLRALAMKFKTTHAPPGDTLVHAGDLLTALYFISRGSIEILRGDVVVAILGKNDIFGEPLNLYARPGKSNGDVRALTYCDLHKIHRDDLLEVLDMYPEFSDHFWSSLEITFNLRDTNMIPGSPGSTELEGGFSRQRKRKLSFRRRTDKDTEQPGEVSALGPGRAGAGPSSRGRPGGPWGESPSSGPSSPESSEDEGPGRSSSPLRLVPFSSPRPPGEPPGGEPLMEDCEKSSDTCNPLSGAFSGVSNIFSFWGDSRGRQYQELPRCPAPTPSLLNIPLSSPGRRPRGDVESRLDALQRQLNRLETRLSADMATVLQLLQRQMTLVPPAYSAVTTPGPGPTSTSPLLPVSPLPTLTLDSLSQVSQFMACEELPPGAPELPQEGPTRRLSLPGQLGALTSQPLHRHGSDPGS

COc1cc(N2CCC(N3CCN(C)CC3)CC2)c(-c2cnn(C)c2)cc1Nc1ncc(Cl)c(Nc2ccc3nccnc3c2P(C)(C)=O)n1 [Compound 1, (6-((5-Chloro-2-((2-methoxy-5-(1-methyl-1hydro-pyrazol-4-yl)-4-(4-(4-methylpiperazine-1-yl)piperidin-1-yl)phenyl)amino)pyrimidin-4-yl)amino)quinoxalin-5-yl)dimethylphosphine oxide]
IC50 [1]: > 30000 nM
Instrinsic clearance of liver microsomal protein, CLint [2]: 2.4 μL/min/mg proteins
Instrinsic clearance of liver microsomal protein, CLint [3]: 38.8 μL/min/mg proteins
Instrinsic clearance of liver microsomal protein, CLint [4]: 6.6 μL/min/mg proteins
GI50 [5]: 2.1 nM
